Test results taken from PMC12596731, “Cys–Lys stapling for unprotected peptides via tunable linkers” (National Science Review, 2025).
Blank lines part the entries; values can stand above or below the molecule they belong to.

Legend:
[1] = system: human bladder cancer cells; type: cell-based; conditions: 48 h
Protocol: XI. Biological Experiments
Cell Counting Kit (CCK-8) was used to evaluate the proliferation inhibition activity of the compounds, and the half inhibitory concentration IC50 value was determined by single-concentration primary screening and multi-concentration.
Fetal Bovine Serum (FBS) 04-001-1acs, Biological industries; PBS phosphate buffer (PB180327), penicillin-streptomycin sulfate double resistant mixture (100× ) […]
Leibovitz's L-15 medium (PM151010), Wuhan Punosai Life Technology Co., LTD.
CCK-8 Kit, Biosharp life sciences; Trypsin-edta Digestive Solution (05200-056), GIBCO; Cellular DMSO (D2650 -100ML), SIGMA; 96-well cell culture plate, Corning Life Sciences (Wujiang) Co., LTD. 25, 75cm2 cell culture bottle, Corning Life Sciences (Wujiang) Co., LTD. Blood cell counting plate, Shanghai Qiujing Biochemical Reagent Instrument Co., LTD. Cisplatin (D8810), Solarbio life sciences;
Instruments and equipment
Super clean workbench (sw-cj-2fd), Sujing Aetna; Microscope (nib -100), Ningbo Yongxin Optical Co., Ltd; Carbon dioxide cell incubator (MCO -18AC), Phcbi; Electric constant temperature water bath pot (HWS -24), Shanghai Yiheng Technology Co., Ltd; Multifunctional microplate reader (Multiskan MK3), Thermo; One ten-thousandth balance (MS105DU), METTLER; Centrifuge (TD4N), ChangshaYingtai Instrument Co., Ltd; Mixer (SCI-VS), Selo Czech Republic, USA.
The samples were dissolved in the cell -grade DMSO after accurately weighing to generate the 10 mM drug solution. The drug solution was further diluted to tenfold detection concentration by cell culture medium.
Standard Operation Procedure
Detection principle of cytotoxicity (CCK -8 method):
The detection principle is that the CCK-8 reagent contains WST-8, which is reduced S52 to a highly water-soluble yellow methyl product (formazan) by dehydrogenase in the cell mitochondria under the action of electron carrier 1-methoxy-5-methylphenazine dimethyl sulfate (1-methoxy PMS). The number of the nail products produced is directly proportional to the number of living cells.
(1) Inoculate cells: The cells were prepared into single cell suspension with the culture medium containing 10% fetal bovine serum, and the 96 well plates were inoculated with 90 uL cell culture medium (Adherent cell viewed 5×10^4/mL and Suspension cell viewed 9×10^4/mL) per well, then cultured at 5% CO2 and 37 ℃ for 24 hours.
(2) Add the sample solution to be tested: Add 10 µL sample solution to each well. One concentration was set for each sample during preliminary screening and three multiple holes were set for each concentration. Eight concentration gradients were set for each sample for IC50 determination and three multiple holes were set for each concentration.
The 96 well plates were cultured at 5% CO2 and 37 ℃ for 48 hours. The experiment was divided into a blank group, control group and drug group.
(3) Color development: The old culture medium and drug solution of adherent cells were sucked out, then 100 µL of CCK-8 solution (diluted ten times with the basic medium) was added and the suspension cells were directly added 10 µL of CCK-8 stock solution. Culture at 37 ℃ with 5% CO2 for 1-4 h (dark operation, real-time observation).
(4) Result detection: The absorbance was measured at 450 nm with an enzyme labeling instrument and the original data and results were recorded.
(5) The toxicity is expressed by cell inhibition, and the calculation formula is as follows:
Cell inhibition (%) = (ODControl-ODDrug) / (ODControl-ODBlank)×100%. The IC50 was calculated by the software graphpad prism 8 (version 8.0.2, from GraphPad SoftwareInc)，and the experimental results are expressed in ± SD.
6) Positive control: Cisplatin.

[2] = Cys-Lys stapling of unprotected peptides with unsymmetrical linker (1.5 equiv): Cys thiol displaces phthalimide from N-thiophthalimide (disulfide, ~1 min), then ring closure by Lys amine attack on pentafluorophenyl ester with DIPEA (4 equiv); conditions: the molecule shown is the open-chain precursor, CH3CN:H2O 3:1, 25.0 °C, 0.167 h

- IC50 [1]: 22.4 µM
SMILES: CC(=O)N[C@H](C(=O)N[C@@H](CO)C(=O)N[C@@H](Cc1ccccc1)C(=O)N[C@H]1CCCCNC(=O)c2cccc(c2)OCC/C(Cl)=C\SSC[C@@H](C(=O)N[C@@H](CC(C)C)C(=O)N[C@@H](CC(C)C)C(=O)N[C@@H](CO)C(=O)N[C@@H](CCCNC(=N)N)C(N)=O)NC(=O)[C@H](Cc2c[nH]c3ccccc23)NC(=O)[C@H](Cc2ccc(O)cc2)NC(=O)[C@H](CCC(N)=O)NC1=O)[C@@H](C)O [Peptide 5q]

- IC50 [1]: 14.9 µM
SMILES: CC(=O)N[C@H](C(=O)N[C@@H](CO)C(=O)N[C@@H](Cc1ccccc1)C(=O)N[C@H]1CCCCNC(=O)c2ccccc2OCC/C(Cl)=C\SSC[C@@H](C(=O)N[C@@H](CC(C)C)C(=O)N[C@@H](CC(C)C)C(=O)N[C@@H](CO)C(=O)N[C@@H](CCCNC(=N)N)C(N)=O)NC(=O)[C@H](Cc2c[nH]c3ccccc23)NC(=O)[C@H](Cc2ccc(O)cc2)NC(=O)[C@H](CCC(N)=O)NC1=O)[C@@H](C)O [Peptide 5p]

- IC50 [1]: 21.7 µM
SMILES: CC(=O)N[C@H](C(=O)N[C@@H](CO)C(=O)N[C@@H](Cc1ccccc1)C(=O)N[C@H]1CCCCNC(=O)COC/C(Cl)=C\SSC[C@@H](C(=O)N[C@@H](CC(C)C)C(=O)N[C@@H](CC(C)C)C(=O)N[C@@H](CO)C(=O)N[C@@H](CCCNC(=N)N)C(N)=O)NC(=O)[C@H](Cc2c[nH]c3ccccc23)NC(=O)[C@H](Cc2ccc(O)cc2)NC(=O)[C@H](CCC(N)=O)NC1=O)[C@@H](C)O [Peptide 5m]

SMILES: CC(=O)N[C@H](C(=O)N[C@@H](CO)C(=O)N[C@@H](Cc1ccccc1)C(=O)N[C@@H](CCCCN)C(=O)N[C@@H](CCC(N)=O)C(=O)N[C@@H](Cc1ccc(O)cc1)C(=O)N[C@@H](Cc1c[nH]c2ccccc12)C(=O)N[C@@H](CSS/C(=C/Cl)c1cccc(C(=O)Oc2c(F)c(F)c(F)c(F)c2F)c1)C(=O)N[C@@H](CC(C)C)C(=O)N[C@@H](CC(C)C)C(=O)N[C@@H](CO)C(=O)N[C@@H](CCCNC(=N)N)C(N)=O)[C@@H](C)O
- ring closure, isolated yield ([2]; 26-membered ring): 84%

SMILES: CC(=O)N[C@@H](CCCCN)C(=O)N[C@@H](C)C(=O)N[C@@H](C)C(=O)N[C@@H](C)C(=O)N[C@@H](CSS/C(=C/Cl)CCC(=O)Oc1c(F)c(F)c(F)c(F)c1F)C(=O)N[C@@H](Cc1ccccc1)C(N)=O [Ac-Lys-Ala-Ala-Ala-Cys(S-linker 3a-OPfp)-Phe-NH2]
- ring closure, isolated yield ([2]; 25-membered ring): 72%

SMILES: CC[C@H](C)[C@H](NC(=O)[C@@H]1CCCN1C(=O)[C@H](CSS/C(=C/Cl)COCC(=O)Oc1c(F)c(F)c(F)c(F)c1F)NC(C)=O)C(=O)N[C@@H](CCSC)C(=O)N[C@@H](CCC(=O)O)C(=O)N[C@@H](CC(=O)O)C(=O)N[C@@H](CCCNC(=N)N)C(=O)N[C@@H](CCCCN)C(=O)N1CCC[C@H]1C(N)=O [Ac-Cys(S-linker 3f-OPfp)-Pro-Ile-Met-Glu-Asp-Arg-Lys-Pro-NH2]
- ring closure, isolated yield ([2]; 35-membered ring): 75%

SMILES: CC(=O)N[C@H](C(=O)N[C@@H](CO)C(=O)N[C@@H](Cc1ccccc1)C(=O)N[C@@H](CCCCN)C(=O)N[C@@H](CCC(N)=O)C(=O)N[C@@H](Cc1ccc(O)cc1)C(=O)N[C@@H](Cc1c[nH]c2ccccc12)C(=O)N[C@@H](CSS/C(=C/Cl)CCC(=O)Oc1c(F)c(F)c(F)c(F)c1F)C(=O)N[C@@H](CC(C)C)C(=O)N[C@@H](CC(C)C)C(=O)N[C@@H](CO)C(=O)N[C@@H](CCCNC(=N)N)C(N)=O)[C@@H](C)O
- ring closure, isolated yield ([2]; 25-membered ring): 69%

SMILES: C[C@H](NC(=O)[C@H](C)NC(=O)[C@@H](N)CCCCN)C(=O)N[C@@H](C)C(=O)N[C@@H](CSS/C(=C/Cl)CCC(=O)Oc1c(F)c(F)c(F)c(F)c1F)C(=O)N[C@@H](Cc1ccccc1)C(N)=O [H-Lys-Ala-Ala-Ala-Cys(S-linker 3a-OPfp)-Phe-NH2]
- ring closure, isolated yield ([2]; 25-membered ring): 68%

SMILES: CC[C@H](C)[C@H](NC(=O)[C@@H]1CCCN1C(=O)[C@H](CSS/C(=C/Cl)CCOc1cccc(C(=O)Oc2c(F)c(F)c(F)c(F)c2F)c1)NC(C)=O)C(=O)N[C@@H](CCSC)C(=O)N[C@@H](CCC(=O)O)C(=O)N[C@@H](CC(=O)O)C(=O)N[C@@H](CCCNC(=N)N)C(=O)N[C@@H](CCCCN)C(=O)N1CCC[C@H]1C(N)=O [Ac-Cys(S-linker 3k-OPfp)-Pro-Ile-Met-Glu-Asp-Arg-Lys-Pro-NH2]
- ring closure, isolated yield ([2]; 38-membered ring): 72%

SMILES: CC[C@H](C)[C@H](NC(=O)[C@@H]1CCCN1C(=O)[C@H](CSS/C(=C/Cl)CCCC(=O)Oc1c(F)c(F)c(F)c(F)c1F)NC(C)=O)C(=O)N[C@@H](CCSC)C(=O)N[C@@H](CCC(=O)O)C(=O)N[C@@H](CC(=O)O)C(=O)N[C@@H](CCCNC(=N)N)C(=O)N[C@@H](CCCCN)C(=O)N1CCC[C@H]1C(N)=O [Ac-Cys(S-linker 3b-OPfp)-Pro-Ile-Met-Glu-Asp-Arg-Lys-Pro-NH2]
- ring closure, isolated yield ([2]; 35-membered ring): 81%

SMILES: CC(=O)N[C@@H](CCCCN)C(=O)N[C@@H](C)C(=O)N[C@@H](C)C(=O)N[C@@H](C)C(=O)N[C@@H](CSS/C(=C/Cl)CCCC(=O)Oc1c(F)c(F)c(F)c(F)c1F)C(=O)N[C@@H](Cc1ccccc1)C(N)=O [Ac-Lys-Ala-Ala-Ala-Cys(S-linker 3b-OPfp)-Phe-NH2]
- ring closure, isolated yield ([2]; 26-membered ring): 76%

- IC50 [1]: 14.6 µM
SMILES: CC(=O)N[C@H](C(=O)N[C@@H](CO)C(=O)N[C@@H](Cc1ccccc1)C(=O)N[C@H]1CCCCNC(=O)CC/C(=C\Cl)SSC[C@@H](C(=O)N[C@@H](CC(C)C)C(=O)N[C@@H](CC(C)C)C(=O)N[C@@H](CO)C(=O)N[C@@H](CCCNC(=N)N)C(N)=O)NC(=O)[C@H](Cc2c[nH]c3ccccc23)NC(=O)[C@H](Cc2ccc(O)cc2)NC(=O)[C@H](CCC(N)=O)NC1=O)[C@@H](C)O [Peptide 5k]

SMILES: CC(=O)N[C@@H](CCC(N)=O)C(=O)N[C@@H](CO)C(=O)N[C@@H](CCC(N)=O)C(=O)N[C@@H](CCC(N)=O)C(=O)N[C@H](C(=O)N[C@@H](Cc1ccccc1)C(=O)N[C@@H](CSS/C(=C/Cl)CCC(=O)Oc1c(F)c(F)c(F)c(F)c1F)C(=O)N[C@@H](CC(N)=O)C(=O)N[C@@H](CC(C)C)C(=O)N[C@@H](Cc1c[nH]c2ccccc12)C(=O)N[C@@H](CCCNC(=N)N)C(=O)N[C@@H](CC(C)C)C(=O)N[C@@H](CC(C)C)C(=O)N[C@@H](CCCCN)C(=O)N[C@@H](CCC(N)=O)C(=O)N[C@@H](CC(N)=O)C(N)=O)[C@@H](C)O
- ring closure, isolated yield ([2]; 34-membered ring): 79%

SMILES: CC(=O)N[C@H](C(=O)N[C@@H](CO)C(=O)N[C@@H](Cc1ccccc1)C(=O)N[C@@H](CCCCN)C(=O)N[C@@H](CCC(N)=O)C(=O)N[C@@H](Cc1ccc(O)cc1)C(=O)N[C@@H](Cc1c[nH]c2ccccc12)C(=O)N[C@@H](CSS/C(=C/Cl)CCCCCCCCC(=O)Oc1c(F)c(F)c(F)c(F)c1F)C(=O)N[C@@H](CC(C)C)C(=O)N[C@@H](CC(C)C)C(=O)N[C@@H](CO)C(=O)N[C@@H](CCCNC(=N)N)C(N)=O)[C@@H](C)O
- ring closure, isolated yield ([2]; 31-membered ring): 68%
